# From patent US7488740B2, “Substituted quinolin-4-ylamine analogues” (Neurogen Corporation, priority 2003, dated 2009)
# Target: T1, human capsaicin receptor (Homo sapiens, UniProt Q8NER1)
# T1 construct: A cDNA encoding full length human capsaicin receptor recited in U.S. Pat. No. 6,482,611 was subcloned in the plasmid pBK-CMV; expressed in transfected cells
# Experiment: Calcium mobilization assay (Example 6)
# Type: cell-based
# Conditions: concentration required to provide a 50% decrease in the fluorescence response of cells exposed to one IC50 of capsaicin
# Experimental: Human embryonic kidney (HEK293) cells were transfected with the pBK-CMV expression construct encoding the full length human capsaicin receptor using standard methods. The transfected cells were selected for two weeks in media containing G418 (400 μg/ml) to obtain a pool of stably transfected cells. Independent clones were isolated from this pool by limiting dilution to obtain clonal stable cell lines for use in subsequent experiments.
# Cells transfected with expression plasmids (as described in Example 4) and thereby expressing human capsaicin receptor are seeded and grown to 70-90% confluency in FALCON black-walled, clear-bottomed 96-well plates (#3904, BECTON-DICKINSON, Franklin Lakes, N.J.). The culture medium is emptied from the 96 well plates and FLUO-3 AM calcium sensitive dye (Molecular Probes, Eugene, Oreg.) is added to each well (dye solution: 1 mg FLUO-3 AM, 440 μL DMSO and 440 μl 20% pluronic acid in DMSO, diluted 1:250 in Krebs-Ringer HEPES (KRH) buffer (25 mM HEPES, 5 mM KCl, 0.96 mM NaH2PO4, 1 mM MgSO4, 2 mM CaCl2, 5 mM glucose, 1 mM probenecid, pH 7.4), 50 μl diluted solution per well). Plates are covered with aluminum foil and incubated at 37° C. for 1-2 hours in an environment containing 5% CO2. After the incubation, the dye is emptied from the plates, and the cells are washed once with KRH buffer, and, resuspended in KRH buffer.
# Agonist (e.g., olvanil, capsaicin, or RTX)-induced calcium mobilization is monitored using either FLUOROSKAN ASCENT (Labsystems, Franklin, Mass.) or FLIPR (fluorometric imaging plate reader system, Molecular Devices, Sunnyvale, Calif.) instruments. Varying concentrations of the antagonists ruthenium red or capsazepine (RBI; Natick, Mass.) are added to cells concurrently with agonist (e.g., 25-50 nM capsaicin). For agonist-induced calcium responses, data obtained between 30 and 60 seconds after agonist application are used to generate the IC50 values. KALEIDAGRAPH software (Synergy Software, Reading, Pa.) is used to fit the data to the equation: y=a*(1/(1+(b/x)^c)) to determine the IC50 for the response. In this equation, y is the maximum fluorescence signal, x is the concentration of the agonist or antagonist, a is the Emax, b corresponds to the IC50 value and c is the Hill coefficient.
# To measure the ability of a test compound to antagonize (inhibit) the response of cells expressing capsaicin receptors to capsaicin or other vanilloid agonist, the IC50 of capsaicin is first determined. An additional 20 μl of KRH buffer and 1 μl DMSO is added to each well of cells, prepared as described above. 100 μl capsaicin in KRH buffer is automatically transferred by the FLIPR instrument to each well. An 8-point concentration response curve, with final capsaicin concentrations of 1 nM to 3 μM, is used to determine capsaicin IC50.
# Test compounds are dissolved in DMSO, diluted in 20 μl KRH buffer so that the final concentration of test compounds in the assay well is between 1 μM and 5 μM, and added to cells prepared as described above. The 96 well plates containing prepared cells and test compounds are incubated in the dark, at room temperature for 0.5 to 6 hours. It is important that the incubation not continue beyond 6 hours. Just prior to determining the fluorescence response, 100 μl capsaicin in KRH buffer at twice the IC50 concentration determined from the concentration response curve is automatically added by the FLIPR instrument to each well of the 96 well plate for a final sample volume of 200 μl and a final capsaicin concentration equal to the IC50. The final concentration of test compounds in the assay wells is between 1 μM and 5 μM. […] Antagonists of the capsaicin receptor decrease this response by at least about 20%, preferably by at least about 50%, and most preferably by at least 80% as compared to matched control. The concentration of antagonist required to provide a 50% decrease is the IC50 for the antagonist, and is preferably below 1 micromolar, 100 nanomolar, 10 nanomolar or 1 nanomolar. […]
# T1 sequence (Q8NER1 whole entry): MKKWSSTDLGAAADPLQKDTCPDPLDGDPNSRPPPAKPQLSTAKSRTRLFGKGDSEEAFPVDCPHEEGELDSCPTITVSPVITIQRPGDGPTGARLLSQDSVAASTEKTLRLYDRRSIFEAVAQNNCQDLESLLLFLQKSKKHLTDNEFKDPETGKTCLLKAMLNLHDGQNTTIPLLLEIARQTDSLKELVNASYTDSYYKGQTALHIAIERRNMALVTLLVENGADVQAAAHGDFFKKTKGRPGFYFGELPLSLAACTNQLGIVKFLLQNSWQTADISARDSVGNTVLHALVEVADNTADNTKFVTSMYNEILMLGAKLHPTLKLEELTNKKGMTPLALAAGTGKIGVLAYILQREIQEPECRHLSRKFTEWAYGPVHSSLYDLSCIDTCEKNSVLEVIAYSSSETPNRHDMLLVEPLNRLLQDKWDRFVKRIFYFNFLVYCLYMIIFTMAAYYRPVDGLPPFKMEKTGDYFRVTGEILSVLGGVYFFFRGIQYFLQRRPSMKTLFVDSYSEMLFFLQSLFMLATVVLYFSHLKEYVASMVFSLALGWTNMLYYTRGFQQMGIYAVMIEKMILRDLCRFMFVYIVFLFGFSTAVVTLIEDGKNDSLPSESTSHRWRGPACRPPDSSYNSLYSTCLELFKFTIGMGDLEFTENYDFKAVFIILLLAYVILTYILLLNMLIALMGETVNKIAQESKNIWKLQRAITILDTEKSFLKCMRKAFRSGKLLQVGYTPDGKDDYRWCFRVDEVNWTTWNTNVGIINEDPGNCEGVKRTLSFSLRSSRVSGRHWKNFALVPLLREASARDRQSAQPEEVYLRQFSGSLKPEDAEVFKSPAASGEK
row,Compound,IC50
1,"CCCCNc1cc(Nc2ccc(C(C)(C)C)cc2)c2ccc(-c3ncccc3C(F)(F)F)cc2n1 [Compound 27, N~2~-butyl-N~4~-(4-tert-butylphenyl)-7-[3-(trifluoromethyl)pyridin-2-yl]quinoline-2,4-diamine]",≤ 1000 nM
2,"CC(C)(C)c1ccc(Nc2cc(N3CCCC3)nc3cc(-c4ncccc4C(F)(F)F)ccc23)cc1 [Compound 28, N-(4-tert-butylphenyl)-2-pyrrolidin-1-yl-7-[3-(trifluoromethyl)pyridin-2-yl]quinolin-4-amine]",≤ 1000 nM
3,"CC(C)CCNc1cc(Nc2ccc(C(C)(C)C)cc2)c2ccc(-c3ncccc3C(F)(F)F)cc2n1 [Compound 29, N~4~-(4-tert-butylphenyl)-N~2~-isopentyl-7-[3-(trifluoromethyl)pyridin-2-yl]quinoline-2,4-diamine]",≤ 1000 nM
4,"CCOc1cc(Nc2ccc(C(C)(C)C)cc2)c2ccc(-c3ncccc3C(F)(F)F)cc2n1 [Compound 30, N-(4-tert-butylphenyl)-2-ethoxy-7-[3-(trifluoromethyl)pyridin-2-yl]quinolin-4-amine]",≤ 1000 nM
5,"Oc1cc(Nc2ccc(C(F)(F)F)cc2)c2ccc(-c3ncccc3C(F)(F)F)nc2n1 [Compound 31, 4-{[4-(trifluoromethyl)phenyl]amino}-7-[3-(trifluoromethyl)pyridin-2-yl]-1,8-naphthyridin-2-ol]",≤ 1000 nM
6,"CC(C)CCOc1cc(Nc2ccc(C(C)(C)C)cc2)c2ccc(-c3ncccc3C(F)(F)F)cc2n1 [Compound 32, N-(4-tert-butylphenyl)-2-(isopentyloxy)-7-[3-(trifluoromethyl)pyridin-2-yl]quinolin-4-amine]",≤ 1000 nM
7,"CCCOc1cc(Nc2ccc(C(C)(C)C)cc2)c2ccc(-c3ncccc3C(F)(F)F)cc2n1 [Compound 33, N-(4-tert-butylphenyl)-2-propoxy-7-[3-(trifluoromethyl)pyridin-2-yl]quinolin-4-amine]",≤ 1000 nM
8,"FC(F)(F)c1ccc(Nc2cc(Cl)nc3nc(-c4ncccc4C(F)(F)F)ccc23)cc1 [Compound 34, 2-chloro-N-[4-(trifluoromethyl)phenyl]-7-[3-(trifluoromethyl)pyridin-2-yl]-1,8-naphthyridin-4-amine]",≤ 1000 nM
9,"FC(F)(F)c1ccc(Nc2ccnc3nc(-c4ncccc4C(F)(F)F)ccc23)cc1 [Compound 35, N-[4-(trifluoromethyl)phenyl]-7-[3-(trifluoromethyl)pyridin-2-yl]-1,8--naphthyridin-4-amine]",≤ 1000 nM
10,"CCOc1cc(Nc2ccc(C(F)(F)F)cc2)c2ccc(-c3ncccc3C(F)(F)F)nc2n1 [Compound 36, 2-ethoxy-N-[4-(trifluoromethyl)phenyl]-7-[3-(trifluoromethyl)pyridin-2-yl]-1,8-naphthyridin-4-amine]",≤ 1000 nM
11,"CCOc1cc(Nc2ccc(C(C)(C)C)cc2)c2ccc(-c3ncccc3C(F)(F)F)nc2n1 [Compound 37, N-(4-tert-butylphenyl)-2-ethoxy-7-[3-(trifluoromethyl)pyridin-2-yl]-1,8-naphthyridin-4-amine]",≤ 1000 nM
12,"CCOc1cc(Nc2ccc(C(C)C)cc2)c2ccc(-c3ncccc3C(F)(F)F)nc2n1 [Compound 38, 2-ethoxy-N-(4-isopropylphenyl)-7-[3-(trifluoromethyl)pyridin-2-yl]-1,8-naphthyridin-4-amine]",≤ 1000 nM
13,"Cc1cc(Nc2ccc(C(F)(F)F)cn2)c2ccc(-c3ncccc3C(F)(F)F)nc2n1 [Compound 39, 2-methyl-7-[3-(trifluoromethyl)pyridin-2-yl]-N-[5-(trifluoromethyl)pyridin-2-yl]-1,8-naphthyridin-4-amine]",≤ 1000 nM
14,"CCOCc1cc(Nc2ccc(C(F)(F)F)cc2)c2ccc(-c3ncccc3C(F)(F)F)nc2n1 [Compound 40, 2-(ethoxymethyl)-N-[4-(trifluoromethyl)phenyl]-7-[3-(trifluoromethyl)pyridin-2-yl]-1,8-naphthyridin-4-amine]",≤ 1000 nM
15,"CC(C)OCc1cc(Nc2ccc(C(F)(F)F)cc2)c2ccc(-c3ncccc3C(F)(F)F)nc2n1 [Compound 41, 2-(isopropoxymethyl)-N-[4-(trifluoromethyl)phenyl]-7-[3-(trifluoromethyl)pyridin-2-yl]-1,8-naphthyridin-4-amine]",≤ 1000 nM
16,"CC(C)CCOCc1cc(Nc2ccc(C(F)(F)F)cc2)c2ccc(-c3ncccc3C(F)(F)F)nc2n1 [Compound 42, 2-[(isopentyloxy)methyl]-N-[4-(trifluoromethyl)phenyl]-7-[3-(trifluoromethyl)pyridin-2-yl]-1,8-naphthyridin-4-amine]",≤ 1000 nM
17,"CCCOCc1cc(Nc2ccc(C(F)(F)F)cc2)c2ccc(-c3ncccc3C(F)(F)F)nc2n1 [Compound 43, 2-(propoxymethyl)-N-[4-(trifluoromethyl)phenyl]-7-[3-(trifluoromethyl)pyridin-2-yl]-1,8-naphthyridin-4-amine]",≤ 1000 nM
18,"CC(C)COCc1cc(Nc2ccc(C(F)(F)F)cn2)c2ccc(-c3ncccc3C(F)(F)F)nc2n1 [Compound 44, 2-(isobutoxymethyl)-7-[3-(trifluoromethyl)pyridin-2-yl]-N-[5-(trifluoromethyl)pyridin-2-yl]-1,8-naphthyridin-4-amine]",≤ 1000 nM
19,"CCOc1cc(Nc2ccc(C(F)(F)F)cn2)c2ccc(-c3ncccc3C(F)(F)F)nc2n1 [Compound 45, 2-ethoxy-7-[3-(trifluoromethyl)pyridin-2-yl]-N-[5-(trifluoromethyl)pyridin-2-yl]-1,8-naphthyridin-4-amine]",≤ 1000 nM
20,"CCOc1cc(Nc2ccc(S(=O)(=O)C(F)(F)F)cc2)c2ccc(-c3ncccc3C(F)(F)F)nc2n1 [Compound 46, 2-ethoxy-7-[3-(trifluoromethyl)pyridin-2-yl]-N-{4-[(trifluoromethyl)sulfonyl]phenyl}-1,8-naphthyridin-4-amine]",≤ 1000 nM
21,"COc1cc(Nc2ccc(C(C)(C)C)cc2)c2ccc(-c3ncccc3C(F)(F)F)nc2n1 [Compound 47, N-(4-tert-butylphenyl)-2-methoxy-7-[3-(trifluoromethyl)pyridin-2-yl]-1,8-naphthyridin-4-amine]",≤ 1000 nM
22,"Cc1cc(Nc2ccc(C(F)(F)F)cc2)c2ccc(-c3ncccc3C(F)(F)F)nc2n1 [Compound 48, 2-methyl-N-[4-(trifluoromethyl)phenyl]-7-[3-(trifluoromethyl)pyridin-2-yl]-1,8-naphthyridin-4-amine]",≤ 1000 nM
23,"CC1CCCN1Cc1cc(Nc2ccc(C(F)(F)F)cc2)c2ccc(-c3ncccc3C(F)(F)F)nc2n1 (stereo not shown) [Compound 49, 2-[(2-methylpyrrolidin-1-yl)methyl]-N-[4-(trifluoromethyl)phenyl]-7-[3-(trifluoromethyl)pyridin-2-yl]-1,8-naphthyridin-4-amine]",≤ 1000 nM
24,"COCCN(CCOC)Cc1cc(Nc2ccc(C(F)(F)F)cc2)c2ccc(-c3ncccc3C(F)(F)F)nc2n1 [Compound 50, 2-{[bis(2-methoxyethyl)amino]methyl}-N-[4-(trifluoromethyl)phenyl]-7-[3-(trifluoromethyl)pyridin-2-yl]-1,8-naphthyridin-4-amine]",≤ 1000 nM
25,"COCc1cc(Nc2ccc(C(F)(F)F)cc2)c2ccc(-c3ncccc3Cl)nc2n1 [Compound 51, 7-(3-chloropyridin-2-yl)-2-(methoxymethyl)-N-[4-(trifluoromethyl)phenyl]-1,8-naphthyridin-4-amine]",≤ 1000 nM
